Non-standard residues stand in square brackets, D forms with d. Residues, ends and D or L forms follow the SMILES beside them. pGlu = O=C1CC[C@@H](C(=O)O)N1
Assays:
Type in all cases: cell-based
apTKRPR-A [1] = biological target: T1, apTKRPR-A (Aplysia californica, UniProt A0AAU7SSZ1); assay: IP1 accumulation assay, CHO-K1 cells transiently expressing apTKRPR-A
T1 sequence (A0AAU7SSZ1 1-398): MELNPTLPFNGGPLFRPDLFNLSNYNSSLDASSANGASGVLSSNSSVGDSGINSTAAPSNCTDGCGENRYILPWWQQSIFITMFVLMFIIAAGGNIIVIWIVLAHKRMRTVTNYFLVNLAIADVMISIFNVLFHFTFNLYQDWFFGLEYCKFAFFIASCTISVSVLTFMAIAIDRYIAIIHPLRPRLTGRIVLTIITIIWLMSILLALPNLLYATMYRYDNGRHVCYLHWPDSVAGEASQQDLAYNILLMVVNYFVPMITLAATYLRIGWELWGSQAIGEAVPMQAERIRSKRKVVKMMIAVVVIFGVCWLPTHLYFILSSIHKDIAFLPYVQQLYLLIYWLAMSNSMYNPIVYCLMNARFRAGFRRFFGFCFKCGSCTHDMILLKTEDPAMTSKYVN
Method: To express putative Aplysia receptors transiently in CHO-K1 cells, the cDNAs were subcloned into the pcDNA3.1(+) or pcDNA3.1(+)-FLAG (for ELISA experiments only, see “Cell surface expression analysis by ELISA” section) expression vector. On the day before transfection, the CHO-K1 cells were passaged into 60 mm diameter tissue culture–treated dishes, and the transfection experiments were performed when the cells were grown to 70 to 90% confluence. CHO-K1 cells were transfected with the cDNA plasmid constructs using Turbofect Transfection reagent (Thermo Fisher Scientific, R0531), following the manufacturer’s instructions. […] The DNA/TurboFect mixture dropwise was then added to the dish, and the cells were incubated at 37 °C in a humidified incubator containing 5% CO2 overnight.
On the third day, the activation of the putative receptors was detected by monitoring intracellular IP1 concentration using an IP-One Gq kit (Cisbio, 62IPAPEB) in Tecan Spark. Except for using 0.5x reagent, all other procedures were performed following the manufacturer’s instructions. IP1 accumulation assay measures the accumulation of IP1, which is hydrolyzed from the second messenger, and inositol triphosphate. Inositol triphosphate is generated by the Gαq pathway when a GPCR is activated by an appropriate ligand.

apTKRPR-A [2] = biological target: T1, apTKRPR-A; assay: Receptor desensitization assay, protocol 2 (repeated agonist exposure), apTKRPR-A; details: 10 μM pretreatment 2-60 min without LiCl, wash, second 10 μM application for 15 min with LiCl; % of control; n = 5
Method: (§1) Therefore, we adopted two protocols to study the desensitization of apTKRPRs. The protocols were performed using a procedure modified from previous work ([87], [88], [89]).
(§2) Protocol 2 ([89]): To simulate repeated stimulation with an agonist, we examined agonist-induced desensitization by quantifying the accumulation level of IP1 after two applications of the agonist/ligand. Because the IP1 accumulation assay involves using LiCl to stop the degradation of IP1, in this protocol, LiCl was applied only during the second application of the agonist. Specifically, to elicit desensitization, cells were first exposed to 10 μM apTKRP-2b in the absence of LiCl for various pretreatment durations (pretreatment stage/phase Ⅰ). After this agonist exposure, cells were washed (three times) rapidly with PBS (phase Ⅱ), and the wash was consistently performed in each experiment. Responsiveness of the receptor was then assessed by measuring intracellular concentrations of IP1 accumulation in response to a second application of 10 μM apTKRP-2b for 15 min in the presence of LiCl (phase Ⅲ) (Fig. S11).

apTKRPR-B = biological target: T2, apTKRPR-B (Aplysia californica, UniProt A0AAU7STS1); assay: Receptor desensitization assay, protocol 2 (repeated agonist exposure), apTKRPR-B; details: 10 μM pretreatment 2-60 min without LiCl, wash, second 10 μM application for 15 min with LiCl; % of control; n = 5
T2 sequence (A0AAU7STS1 1-447): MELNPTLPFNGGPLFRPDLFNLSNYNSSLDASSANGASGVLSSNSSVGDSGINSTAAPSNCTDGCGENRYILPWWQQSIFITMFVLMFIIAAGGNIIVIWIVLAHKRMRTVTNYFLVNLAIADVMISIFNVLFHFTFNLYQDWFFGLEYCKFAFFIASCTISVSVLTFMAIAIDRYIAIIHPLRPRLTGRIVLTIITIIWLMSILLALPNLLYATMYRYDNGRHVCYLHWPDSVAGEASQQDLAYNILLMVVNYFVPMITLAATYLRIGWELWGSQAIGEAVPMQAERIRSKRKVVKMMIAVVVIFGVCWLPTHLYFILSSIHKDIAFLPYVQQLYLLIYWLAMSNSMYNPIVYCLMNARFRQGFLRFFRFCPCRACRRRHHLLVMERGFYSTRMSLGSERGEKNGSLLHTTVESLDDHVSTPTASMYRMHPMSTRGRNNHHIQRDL
Method: as §1, §2

Structure (SMILES): CC(C)C[C@H](NC(=O)[C@H](Cc1c[nH]cn1)NC(=O)[C@@H]1CCCN1C(=O)[C@@H]1CCC(=O)N1)C(=O)NCC(=O)N[C@@H](Cc1ccccc1)C(=O)N[C@@H](Cc1c[nH]cn1)C(=O)NCC(=O)N[C@@H](CO)C(=O)N[C@@H](CCCNC(=N)N)C(N)=O [apTKRP-2b] ([pGlu]PHLGFHGSR-NH2)
- EC50 (apTKRPR-A [1]): 37.2 nM
- IP1 response of apTKRPR-A in screening (apTKRPR-A [1]; 10^-5 M compared with 10^-10 M (control), n = 3, no Gαq cotransfection): responded
- IP1 accumulation after pretreatment, apTKRPR-A (protocol 2) (apTKRPR-A [2]): IP1 accumulation was less after the second exposure
- IP1 accumulation after pretreatment, apTKRPR-B (protocol 2) (apTKRPR-B): IP1 accumulation was less after the second exposure

— publication PMC11365428 (The Journal of Biological Chemistry, 2024)
